Source: patent US8722673B2, “Imine compounds for combating invertebrate pests” (BASF SE, priority 2008, dated 2014)

Assays:
Assay type in all cases: in vivo
[1] = test system: Diamond Back Moth (Plutella xylostella); assay: Diamond back moth leaf-dip test on Chinese cabbage; conditions: read-out: mortality in comparison with untreated controls
Description: (§1) If not otherwise specified the test solutions were prepared as follow:
(§2) The active compound was dissolved at the desired concentration in a mixture of 1:1 (vol:vol) distilled water:acteon. The test solution was prepared the day it was used and in general at concentrations of […] (wt/vol).
Leaves of Chinese cabbage were dipped in test solution and air-dried. Treated leaves were placed in petri dished lined with moist filter paper. Mortality was recorded 24, 72, and 120 hours after treatment.

[2] = test system: Tobacco Budworm (Heliothis virescens); assay: Tobacco budworm microtiter plate diet test; conditions: 120 h, read-out: mortality in comparison with untreated controls
Description: For evaluating control of tobacco budworm (Heliothis virescens) the test unit consisted of 96-well-microtiter plates containing an insect diet and 15-25 H. virescens eggs. The compounds were formulated using a solution containing 75% v/v water and 25% v/v DMSO. Different concentrations of formulated compounds were sprayed onto the insect diet at 10 μl, using a custom built micro atomizer, at two replications. After application, microtiter plates are incubated at about 28±1° C. and about 80±5% relative humidity for 5 days. Egg and larval mortality is then visually assessed.

[3] = test system: Boll Weevil (Anthonomus grandis); assay: Boll weevil microtiter plate diet test; conditions: 120 h, read-out: mortality in comparison with untreated controls
Description: For evaluating control of boll weevil (Anthonomus grandis) the test unit consisted of 24-well-microtiter plates containing an insect diet and 20-30 A. grandis eggs. The compounds were formulated using a solution containing 75% v/v water and 25% v/v DMSO. Different concentrations of formulated compounds were sprayed onto the insect diet at 20 μl, using a custom built micro atomizer, at two replications. After application, microtiter plates were incubated at about 23±1° C. and about 50±5% relative humidity for 5 days. Egg and larval mortality was then visually assessed.

[4] = test system: Southern Armyworm (Spodoptera eridania); assay: Southern armyworm spray test on lima bean plants; conditions: 96 h, read-out: mortality in comparison with untreated controls
Description: (§3) The active compounds were formulated in cyclohexanone as a 10,000 ppm solution supplied in tubes. The tubes were inserted into an automated electrostatic sprayer equipped with an atomizing nozzle and served as stock solutions for which lower dilutions are made in 50% acetone:50% water (v/v). A nonionic surfactant (Kinetic®) was included in the solution at a volume of 0.01% (v/v).
Lima bean plants (variety Sieva) were grown 2 plants to a pot and selected for treatment at the 1st true leaf stage. Test solutions were sprayed onto the foliage by an automated electrostatic plant sprayer equipped with an atomizing spray nozzle. The plants were dried in the sprayer fume hood and then removed from the sprayer. Each pot was placed into perforated plastic bags with a zip closure. About 10 to 11 armyworm larvae were placed into the bag and the bags zipped closed. Test plants were maintained in a growth room at about 25° C. and about 20-40% relative humidity for 4 days, avoiding direct exposure to fluorescent light (24 hour photoperiod) to prevent trapping of heat inside the bags. Mortality and reduced feeding were assessed 4 days after treatment, compared to untreated control plants.

[5] = test system: Mediterranean Fruitfly (Ceratitis capitata); assay: Mediterranean fruitfly microtiter plate diet test; conditions: 120 h, read-out: mortality in comparison with untreated controls
Description: For evaluating control of Mediterranean fruitfly (Ceratitis capitata) the test unit consisted of microtiter plates containing an insect diet and 50-80 C. capitata eggs.
The compounds were formulated using a solution containing 75% v/v water and 25% v/v DMSO. Different concentrations of formulated compounds were sprayed onto the insect diet at 5 μl, using a custom built micro atomizer, at two replications. After application, microtiter plates were incubated at about 28±1° C. and about 80±5% relative humidity for 5 days. Egg and larval mortality was then visually assessed.

[6] = test system: Vetch Aphid (Megoura viciae); assay: Vetch aphid leaf disk microtiter plate test; conditions: foliar, 120 h, read-out: mortality in comparison with untreated controls
Description: For evaluating control of vetch aphid (Megoura viciae) through contact or systemic means the test unit consisted of 24-well-microtiter plates containing broad bean leaf disks. The compounds were formulated using a solution containing 75% v/v water and 25% v/v DMSO. Different concentrations of formulated compounds were sprayed onto the leaf disks at 2.5 μl, using a custom built micro atomizer, at two replications. After application, the leaf disks were air-dried and 5-8 adult aphids were placed on the leaf disks inside the microtiter plate wells. The aphids were then allowed to suck on the treated leaf disks and incubated at about 23±1° C. and about 50±5% relative humidity for 5 days. Aphid mortality and fecundity was then visually assessed.

[7] = test system: Silverleaf Whitefly (Bemisia argentifolii); assay: Silverleaf whitefly spray test on cotton plants; conditions: 72 h, read-out: mortality in comparison with untreated controls
From the text: as §3, with “were” for “are”
Cotton plants at the cotyledon stage (one plant per pot) were sprayed by an automated electrostatic plant sprayer equipped with an atomizing spray nozzle. The plants were dried in the sprayer fume hood and then removed from the sprayer. Each pot was placed into a plastic cup and about 10 to 12 whitefly adults (approximately 3-5 days old) were introduced. The insects were collected using an aspirator and a nontoxic Tygon® tubing connected to a barrier pipette tip. The tip, containing the collected insects, was then gently inserted into the soil containing the treated plant, allowing insects to crawl out of the tip to reach the foliage for feeding. Cups were covered with a reusable screened lid. Test plants were maintained in a growth room at about 25° C. and about 20-40% relative humidity for 3 days, avoiding direct exposure to fluorescent light (24 hour photoperiod) to prevent trapping of heat inside the cup. Mortality was assessed 3 days after treatment, compared to untreated control plants.

[8] = test system: Cowpea Aphid (Aphis craccivora); assay: Cowpea aphid spray test on potted cowpea plants; conditions: 500 ppm; population reduction assessed after 24, 72 and 120 hours
Description: as §1, §2
Potted cowpea plants colonized with approximately 100-150 aphids of various stages were sprayed after the pest population had been recorded. Population reduction was assessed after 24, 72, and 120 hours.

[9] = test system: Orchid Thrips (Dichromothrips corbetti); assay: Orchid thrips floral-immersion test; conditions: 96 h, read-out: mortality in comparison with untreated controls
Description: Dichromothrips corbetti adults used for bioassay were obtained from a colony maintained continuously under laboratory conditions. For testing purposes, the test compound was diluted to a concentration of 300 ppm (wt compound: vol diluent) in a 1:1 mixture of acetone:water (vol:vol), plus 0.01% vol/vol Kinetic® surfactant.
Thrips potency of each compound was evaluated by using a floral-immersion technique. Plastic petri dishes were used as test arenas. All petals of individual, intact orchid flowers were dipped into treatment solution and allowed to dry. Treated flowers were placed into individual petri dishes along with 10-15 adult thrips. The petri dishes were then covered with lids. All test arenas were held under continuous light and a temperature of about 28° C. for duration of the assay. After 4 days, the numbers of live thrips was counted on each flower, and along inner walls of each petri dish. The level of thrips mortality was extrapolated from pre-treatment thrips numbers.

Structure (SMILES) | mortality at 300 ppm [1] [%] | mortality at 2500 ppm [2] [%] | mortality at 2500 ppm [3] [%] | mortality at 300 ppm [4] [%] | also measured
COC(=NO)c1ccc(C2=NOC(c3cc(Cl)cc(Cl)c3)(C(F)(F)F)C2)cc1C (single isomer, unassigned) [Compound 1-30, 4-[5-(3,5-Dichloro-phenyl)-5-trifluoromethyl-4,5-dihydro-isoxazol-3-yl]-N-hydroxy-2-methyl-benzimidic acid methyl ester] | ≥ 75 | ≥ 75 | ≥ 75 | ≥ 75 | mortality at 2500 ppm [5]: ≥ 75%
COC(=NO)c1ccc(C2=NOC(c3cc(Cl)cc(Cl)c3)(C(F)(F)F)C2)cc1C (single isomer, unassigned) [Compound 1-31, 4-[5-(3,5-Dichloro-phenyl)-5-trifluoromethyl-4,5-dihydro-isoxazol-3-yl]-N-hydroxy-2-methyl-benzimidic acid methyl ester] |  |  |  |  | mortality at 2500 ppm [6]: ≥ 75%
Cc1cc(C2=NOC(c3cc(Cl)cc(Cl)c3)(C(F)(F)F)C2)ccc1/C=N/OCC(=O)NCC(F)(F)F (centres unmarked) [Compound 1-9, 2-[1-{4-[5-(3,5-Dichloro-phenyl)-5-trifluoromethyl-4,5-dihydro-isoxazol-3-yl]-2-methyl-phenyl}-meth-(E)-ylideneaminooxy]-N-(2,2,2-trifluoro-ethyl)-acetamide] | ≥ 75 | ≥ 75 | ≥ 75 | ≥ 75 | 
Cc1cc(C2=NOC(c3cc(Cl)cc(Cl)c3)(C(F)(F)F)C2)ccc1/C=N/OCC(=O)O (centres unmarked) [Compound 1-12, [1-{4-[5-(3,5-Dichloro-phenyl)-5-trifluoromethyl-4,5-dihydro-isoxazol-3-yl]-2-methyl-phenyl}-meth-(E)-ylideneaminooxy]-acetic acid] |  | ≥ 75 |  |  | mortality at 300 ppm [7]: ≥ 75%; mortality at 2500 ppm [6]: ≥ 75%
Cc1cc(C2=NOC(c3cc(Cl)cc(Cl)c3)(C(F)(F)F)C2)ccc1/C=N/OCC(=O)OC(C)(C)C (centres unmarked) [Compound 1-13, [1-{4-[5-(3,5-Dichloro-phenyl)-5-trifluoromethyl-4,5-dihydro-isoxazol-3-yl]-2-methyl-phenyl}-meth-(E)-ylideneaminooxy]-acetic acid tert-butyl ester] | ≥ 75 | ≥ 75 |  | ≥ 75 | 
Cc1cc(C2=NOC(c3cc(Cl)cc(Cl)c3)(C(F)(F)F)C2)ccc1/C=N/OCC(=O)N1CCOCC1 (centres unmarked) [Compound 1-16] |  |  |  |  | mortality in comparison with untreated controls [8]: at least 75%
CC(=NO)c1ccc(C2=NOC(c3cc(Cl)cc(Cl)c3)(C(F)(F)F)C2)cc1C (centres unmarked) [Compound 1-17, 1-{4-[5-(3,5-Dichloro-phenyl)-5-trifluoromethyl-4,5-dihydro-isoxazol-3-yl]-2-methyl-phenyl}-ethanone oxime] | ≥ 75 | ≥ 75 | ≥ 75 |  | mortality at 300 ppm [9]: ≥ 75%
Cc1cc(C2=NOC(c3cc(Cl)cc(Cl)c3)(C(F)(F)F)C2)ccc1/C=N/NC(=O)c1ccccn1 (centres unmarked) [Compound 1-45, Pyridine-2-carboxylic acid [1-{4-[5-(3,5-dichloro-phenyl)-5-trifluoromethyl-4,5-dihydro-isoxazol-3-yl]-2-methyl-phenyl}-meth-(E)-ylidene]-hydrazide] |  | ≥ 75 | ≥ 75 |  | 
Cc1cc(C2=NOC(c3cc(Cl)cc(Cl)c3)(C(F)(F)F)C2)ccc1C(CC(C)C)=NO (centres unmarked) [Compound 1-55, 1-{4-[5-(3,5-Dichloro-phenyl)-5-trifluoromethyl-4,5-dihydro-isoxazol-3-yl]-2-methyl-phenyl}-3-methyl-butan-1-one oxime] | ≥ 75 | ≥ 75 | ≥ 75 |  | 
